From US20240067668A1, “HETEROARYL DERIVATIVE COMPOUND AND USE THEREOF” (VORONOI INC., priority 2020, published 2024)

Experiments:
[1] = tested on: BaF3-EGFR (Del19/T790M/C797S) cells; test: Inhibitory activity on Ba/F3 cell proliferation (CellTiter-Glo, 72 hours); format: cell-based; conditions: Ba/F3 cells expressing EGFR Del19/T790M/C797S
Description: (§1) The following experiments were performed to evaluate the inhibitory activity of the compound represented by Chemical Formula 1 according to the present invention on the proliferation of Ba/F3 cells expressing EGFR mutants.
(§2) BaF3-EGFR (WT) and BaF3-EGFR (Del19/T790M/C797S) cells were seeded in a clear bottom white 96-well plate at a density of 3×10^3/100 μl/well, and then 0.5 μl/well of the culture medium, containing the compounds at 12 concentrations (0.00001-2 mM) serially diluted in 3 folds and the DMSO control, was added to a final concentration of 0.00005-10 μM, followed by culturing in a 37° C. CO2 incubator for 72 hours. After 72 hours, the plates treated with the compounds were taken out, treated with 100 μl/well of CellTiter-Glo® 2.0 Assay (Promega) solution, and mixed well. After mixing well at room temperature for about 10 minutes, […] was measured using a microplate reader. As to Data, GI50 (μM) values were calculated using GraphPad Prism 8.3.0 (GraphPad software Inc., San Diego) as percentages in proportion to vehicle-based treated cells. The result values were calculated as a cell growth rate (%) compared to the control group. A graph was created using the GraphPad Prism version 5.0 program, and GI50 (μM) values were calculated.

[2] = tested on: BaF3-EGFR (WT) cells; test: as above; format: cell-based; conditions: Ba/F3 cells expressing EGFR WT
Description: as §1, §2

Row | GI50 [1] | GI50 [2] | Structure (SMILES)
1 | > 0.1 µM | > 0.1 µM | COc1cc(N2CCC(N3CCN(C)CC3)CC2)c(F)cc1Nc1nc(Nc2ccc3nccnc3c2P(C)(C)=O)c2cc[nH]c2n1 [Example 66, (6-((2-((5-fluoro-2-methoxy-4-(4-(4-methylpiperazin-1-yl)piperidin-1-yl)phenyl)amino)-7H-pyrrolo[2,3-d]pyrimidin-4-yl)amino)quinoxalin-5-yl)dimethyl-phosphine oxide]
2 | > 0.1 µM | > 0.1 µM | COc1cc(N2CCC(N3CCN(C)CC3)CC2)c(C)cc1Nc1nc(Nc2ccc3nccnc3c2P(C)(C)=O)c2sccc2n1 [Example 59, (6-((2-((2-methoxy-5-methyl-4-(4-(4-methylpiperazin-1-yl)piperidin-1-yl)phenyl)amino)thieno [3,2-d]pyrimidin-4-yl)amino)quinoxalin-5-yl)dimethyl-phosphine oxide]
3 | ≤ 0.05 µM | 0.05 to 0.1 µM | Cn1cc(-c2cc(Nc3nc(Nc4ccc5nccnc5c4P(C)(C)=O)c4cc[nH]c4n3)ccc2N2CCC(N3CCOCC3)CC2)cn1 [Example 40, dimethyl (6-((2-((3-(1-methyl-1H-pyrazol-4-yl)-4-(4-morpholino-piperidin-1-yl)phenyl)amino)-7H-pyrrolo[2,3-d]pyrimidin-4-yl)amino)quinoxalin-5-yl) phosphinexide]
4 | > 0.1 µM | > 0.1 µM | COc1cc(N2CCC(N3CCN(C)CC3)CC2)c(C)cc1Nc1cc(Nc2ccc3nccnc3c2P(C)(C)=O)c2cc[nH]c2n1 [Example 63, (6-((6-((2-methoxy-5-methyl-4-(4-(4-methylpiperazin-1-yl)piperidin-1-yl)phenyl)amino)-1H-pyrrolo[2,3-b]pyridin-4-yl)amino)quinoxalin-5-yl)dimethyl-phosphine oxide]
5 | 0.05 to 0.1 µM | 0.05 to 0.1 µM | COc1cc(N2CCC(N3CCN(C)CC3)CC2)ccc1Nc1nc(Nc2ccc3nccnc3c2P(C)(C)=O)c2cc[nH]c2n1 [Example 57, (6-((2-((2-methoxy-4-(4-(4-methylpiperazin-1-yl)piperidin-1-yl)phenyl)amino)-7H-pyrrolo[2,3-d]pyrimidin-4-yl)amino)quinoxalin-5-yl)dimethyl-phosphine oxide]
6 | ≤ 0.05 µM | > 0.1 µM | CN1CCN(c2c(-c3cnn(C)c3)cc(Nc3nc(Nc4ccc5nccnc5c4P(C)(C)=O)c4cc[nH]c4n3)c3c2OCCO3)CC1 [Example 130, dimethyl (6-((2-((7-(1-methyl-1H-pyrazol-4-yl)-8-(4-methylpiperazin-1-yl)-2,3-dihydrobenzo [b][1,4]dioxin-5-yl)amino)-7H-pyrrolo[2,3-d]pyrimidin-4-yl)amino)quinoxalin-5-yl)phosphine oxide]
7 | > 0.1 µM | > 0.1 µM | COc1cc(N2CCN(C)CC2)c(-c2cnn(C)c2)cc1Nc1nc(Nc2ccc3nccnc3c2P(C)(C)=O)c2c(C(F)(F)F)c[nH]c2n1 [Example 53, (6-((2-((2-methoxy-5-(1-methyl-1H-pyrazol-4-yl)-4-(4-methyl-piperazin-1-yl)phenyl)amino)-5-(trifluoro-methyl)-7H-pyrrolo[2,3-d]pyrimidin-4-yl)amino)quinoxalin-5-yl)dimethyl-phosphine oxide]
8 | > 0.1 µM | > 0.1 µM | COc1cc(N2CCN(C)CC2)c(-c2cnn(C(C)C)c2)cc1Nc1nc(Nc2ccc3nccnc3c2P(C)(C)=O)c2cc[nH]c2n1 [Example 49, (6-((2-((5-(1-isopropyl-1H-pyrazol-4-yl)-2-methoxy-4-(4-methyl-piperazin-1-yl)phenyl)amino)-7H-pyrrolo[2,3-d]pyrimidin-4-yl)amino)quinoxalin-5-yl)dimethyl-phosphine oxide]
9 | > 0.1 µM | > 0.1 µM | COc1cc(N2CCC(N3CCN(C)CC3)CC2)cnc1Nc1cc(Nc2ccc3nccnc3c2P(C)(C)=O)c2cc[nH]c2n1 [Example 65, (6-((6-((3-methoxy-5-(4-(4-methylpiperazin-1-yl)piperidin-1-yl)pyridin-2-yl)amino)-1H-pyrrolo[2,3-b]pyridin-4-yl)amino)quinoxalin-5-yl)dimethyl-phosphine oxide]
10 | > 0.1 µM | > 0.1 µM | COc1cc(N2CCN(C)CC2)c(-c2cnn(C)c2)cc1Nc1nc(Nc2ccc3nccnc3c2P(C)(C)=O)c2c(C#N)c[nH]c2n1 [Example 52]
11 | > 0.1 µM | > 0.1 µM | COc1cc(N2CCC(N3CCN(C)CC3)CC2)ccc1Nc1cc(Nc2ccc3nccnc3c2P(C)(C)=O)c2cc[nH]c2n1 [Example 64, (6-((6-((2-methoxy-4-(4-(4-methylpiperazin-1-yl)piperidin-1-yl)phenyl)amino)-1H-pyrrolo[2,3-b]pyridin-4-yl)amino)quinoxalin-5-yl)dimethyl-phosphine oxide]
12 | > 0.1 µM | > 0.1 µM | Cc1cc(Nc2nc(Nc3ccc4nccnc4c3P(C)(C)=O)c3cc[nH]c3n2)c(OCC(F)(F)F)cc1N1CCOCC1 [Example 11, dimethyl (6-((2-((5-methyl-4-morpholino-2-(2,2,2-trifluoroethoxy)phenyl)amino)-7H-pyrrolo[2,3-d]pyrimidin-4-yl)amino)quinoxalin-5-yl) phosphineoxide]
13 | ≤ 0.05 µM | > 0.1 µM | COc1cc(N2CCN(C(C)(C)CF)CC2)c(-c2cnn(C)c2)cc1Nc1nc(Nc2ccc3nccnc3c2P(C)(C)=O)c2cc[nH]c2n1 [Example 109, (6-((2-((4-(4-(1-fluoro-2-methylpropan-2-yl)piperazin-1-yl)-2-methoxy-5-(1-methyl-1H-pyrazol-4-yl)phenyl)amino)-7H-pyrrolo[2,3-d]pyrimidin-4-yl)amino)quinoxalin-5-yl)dimethyl-phosphine oxide]
14 | > 0.1 µM | > 0.1 µM | CN1CCN(c2cc(OCC(F)(F)F)c(Nc3nc(Nc4cnc5ccccc5c4P(C)(C)=O)c4cc[nH]c4n3)cc2-c2cnn(C)c2)CC1 [Example 14, dimethyl (3-((2-((5-(1-methyl-1H-pyrazol-4-yl)-4-(4-methylpiperazin-1-yl)-2-(2,2,2-trifluoroethoxy)phenyl)amino)-7H-pyrrolo[2,3-d]pyrimidin-4-yl)amino)quinolin-4-yl)phosphine oxide]
15 | > 0.1 µM | > 0.1 µM | Cc1cc(Nc2nc(Nc3ccc4nccnc4c3P(C)(C)=O)c3cc[nH]c3n2)c2c(c1N1CCN(C)CC1)CCO2 [Example 121, dimethyl (6-((2-((5-methyl-4-(4-methylpiperazin-1-yl)-2,3-dihydrobenzo-furan-7-yl)amino)-7H-pyrrolo[2,3-d]pyrimidin-4-yl)amino)quinoxalin-5-yl)phosphine oxide]
16 | > 0.1 µM | > 0.1 µM | COc1cc(N2CCC(N3CCN(C)CC3)CC2)c(C(C)C)cc1Nc1nc(Nc2ccc3nccnc3c2P(C)(C)=O)c2cc[nH]c2n1 [Example 67, (6-((2-((5-isopropyl-2-methoxy-4-(4-(4-methylpiperazin-1-yl)piperidin-1-yl)phenyl)amino)-7H-pyrrolo[2,3-d]pyrimidin-4-yl)amino)quinoxalin-5-yl)dimethyl-phosphine oxide]
17 | > 0.1 µM | > 0.1 µM | CN1CCN(c2ccc(Nc3nc(Nc4ccc5nccnc5c4P(C)(C)=O)c4cc[nH]c4n3)c(OCC(F)(F)F)c2)CC1 [Example 7, dimethyl (6-((2-((4-(4-methylpiperazin-1-yl)-2-(2,2,2-trifluoroethoxy)phenyl)amino)-7H-pyrrolo[2,3-d]pyrimidin-4-yl)amino)quinoxalin-5-yl)phosphine oxide]
